From patent publication US5599793A, “Antithromobotic agents” (Eli Lilly and Company, priority 1995, dated 1997)

Legend:
[1] = system: Human plasma; test: Human plasma anticoagulation, thrombin time (TT); format: biochemical; conditions: concentration required to double the thrombin time, linear extrapolation
Procedure: (§1) Dog plasma and rat plasma is obtained from conscious mixed-breed hounds (either sex, Hazelton-LRE, Kalamazoo, Mich., U.S.A.) or from anesthetized male Sprague-Dawley rats (Harlan Sprague-Dawley, Inc., Indianapolis, Ind., U.S.A.) by venipuncture into 3.8 percent citrate. Fibrinogen is prepared from in-date ACD human blood as the fraction I-2 according to previous procedures and specifications. Smith, Biochem. J., 185, 1-11 (1980); and Smith, et al., Biochemistry, 11, 2958-2967 (1972). Human fibrinogen is also purchased as 98 percent pure/plasmin free from American Diagnostica, Greenwich, Conn. Coagulation reagents ACTIN, Thromboplastin, and Human plasma are from Baxter Healthcare Corp., Dade Division, Miami, Fla. Bovine thrombin from Parke-Davis ([…], Mich.) is used for coagulation assays in plasma.
(§2) Coagulation assay procedures are as previously described. Smith, et al., Thrombosis Research, 50, 163-174 (1988). A CoAScreener coagulation instrument (American LABor, Inc.) is used for all coagulation assay measurements. The prothrombin time (PT) is measured by adding 0.05 mL saline and 0.05 mL Thromboplastin-C reagent to 0.05 mL test plasma. The activated partial thromboplastin time (APTT) is measured by incubation of 0.05 mL test plasma with 0.05 mL Actin reagent for 120 seconds followed by 0.05 mL CaCl2 (0.02M). The thrombin time (TT) is measured by adding 0.05 mL saline and 0.05 mL thrombin (10 NIH units/mL) to 0.05 mL test plasma. The compounds of formula I are added to human or animal plasma over a wide range of concentrations to determine prolongation effects on the APTT, PT, and TT assays. Linear extrapolations are performed to estimate the concentrations required to double the clotting time for each assay.

[2] = system: Human plasma; test: Human plasma anticoagulation, prothrombin time (PT); format: biochemical; conditions: concentration required to double the PT, linear extrapolation
Procedure: as §1, §2

[3] = target: T1, Trypsin (Bos taurus, UniProt P00760); test: Serine protease selectivity, chromogenic substrate (Kass), trypsin; format: biochemical, bovine; conditions: substrate N-Benzoyl-Phe-Val-Arg-p-nitroanilide
T1 construct: Bovine trypsin is purchased; purchased Worthington Biochemicals, Freehold, N.J
T1 sequence (P00760 24-246): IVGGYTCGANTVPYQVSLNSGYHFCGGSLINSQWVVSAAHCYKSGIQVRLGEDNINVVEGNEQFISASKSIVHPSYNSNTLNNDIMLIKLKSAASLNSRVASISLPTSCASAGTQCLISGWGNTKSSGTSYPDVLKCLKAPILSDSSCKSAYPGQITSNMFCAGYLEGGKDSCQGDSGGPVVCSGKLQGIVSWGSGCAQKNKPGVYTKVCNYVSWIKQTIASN
Procedure: (§3) The assay is carried out by mixing 50 μL buffer (0.03M Tris, 0.15M NaCl, pH 7.4) with 25 μL of bovine thrombin or human thrombin solution (0.21 mg/mL of thrombostat bovine thrombin, Parke-Davis, or purified human thrombin, Enzyme Research Laboratories, South Bend, Ind., at about 8 NIH units/mL, in the same buffer) and 25 μL of test compound in a solvent (in 50% aqueous methanol, v:v). The 150 μL of an aqueous solution of the chromogenic substrate (at 0.25 mg/mL) are added and the rates of hydrolysis of the substrate are measured by monitoring the reactions at 405 nm for the release of p-nitroaniline. Standard curves are constructed by plotting free thrombin concentration against hydrolysis rate. The hydrolysis rates observed with test compounds are then converted to "free thrombin" values in the respective assays by use of the standard curves. The bound thrombin (bound to test compound) is calculated by subtracting the amount of free thrombin observed in each assay from the known initial amount of thrombin used in the assay. The amount of free inhibitor in each assay is calculated by subtracting the number of moles of bound thrombin from the number of moles of added inhibitor (test compound).
(§4) Kass is calculated for a range of concentrations of test compounds and the mean value is reported in units of liter per mole.
(§5) By substantially following the procedures described above for human thrombin, and using other human blood coagulation system serine proteases and proteases of the fibrinolytic system with the appropriate chromogenic substrates, identified below, selectivity of the compounds of the present invention with respect to the coagulation factor serine proteases and with respect to the fibrinolytic system serine proteases are evaluated as well as their substantial lack of interference with serine proteases of the fibrinolytic system. Thrombin inhibitors preferably should spare fibrinolysis induced by urokinase, tissue plasminogen activator (t-PA) and streptokinase. This would be important to the therapeutic use of such agents as an adjunct to streptokinase, t-PA or urokinase thrombolytic therapy and to the use of such agents as an endogenous fibrinolysis-sparing (with respect to t-PA and urokinase) antithrombotic agent. In addition to the lack of interference with the amidase activity of the fibrinolytic proteases, such fibrinolytic system sparing can be studied by the use of human plasma clots and their lysis by the respective fibrinolytic plasminogen activators.
(§6) Human factors X, Xa, IXa, XIa, and XIIa are purchased from Enzyme Research Laboratories, South Bend, Ind.; human urokinase from Leo Pharmaceuticals, Denmark; and recombinant activated Protein C (aPC) is prepared at Eli Lilly and Co. substantially according to U.S. Pat. No. 4,981,952. Chromogenic substrates: N-Benzoyl-Ile-Glu-Gly-Arg-p-nitroanilide (for factor Xa); N-Cbz-D-Arg-Gly-Arg-p-nitroanilide (for factor IXa assay as the factor Xa substrate); Pyroglutamyl-Pro-Arg-p-nitroanilide (for Factor XIa and for aPC); H-D-Pro-Phe-Arg-p-nitroanilide (for factor XIIa); and Pyroglutamyl-Gly-Arg-p-nitroanilide (for urokinase); are purchased from KabiVitrum, Stockholm, Sweden, or from Midwest Biotech, Fishers, Ind. Bovine trypsin is purchased from Worthington Biochemicals, Freehold, N.J., and human plasma kallikrein from Kabi Vitrum, Stockholm, Sweden. Chromogenic substrate H-D-Pro-Phe-Arg-p-nitroanilide for plasma kallikrein is purchased from Kabi Vitrum, Stockholm, Sweden. N-Benzoyl-Phe-Val-Arg-p-nitroanilide, the substrate for human thrombin and for trypsin, is synthesized according to procedures described above for the compounds of the present invention, using known methods of peptide coupling from commercially available reactants or purchased from Midwest Biotech, Fishers, Ind.

[4] = target: Human Thrombin (Homo sapiens, UniProt P00734); test: Inhibition of amidase activity of thrombin (Kass); format: biochemical; conditions: apparent association constant, mean over a range of concentrations
Procedure: as §3
The Kass value is the hypothetical equilibrium constant for the reaction between thrombin and the test compound (I). [drawing 54]
as §4

[5] = target: T2, Plasmin (Homo sapiens, UniProt P00747); test: Serine protease selectivity, chromogenic substrate (Kass), plasmin; format: biochemical; conditions: substrate H-D-Val-Leu-Lys-p-nitroanilide
T2 construct: Human plasmin is purchased; purchased Boehringer Mannheim, Indianapolis, Ind
T2 sequence (P00747 581-810 limits assumed): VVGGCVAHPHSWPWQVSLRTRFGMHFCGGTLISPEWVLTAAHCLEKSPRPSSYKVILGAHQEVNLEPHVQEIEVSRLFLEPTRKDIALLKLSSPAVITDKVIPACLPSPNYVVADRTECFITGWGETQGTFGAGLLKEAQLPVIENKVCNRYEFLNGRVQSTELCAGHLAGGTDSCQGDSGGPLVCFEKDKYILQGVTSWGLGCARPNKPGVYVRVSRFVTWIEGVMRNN
T2 sequence (P00747 97-580 partner limits assumed): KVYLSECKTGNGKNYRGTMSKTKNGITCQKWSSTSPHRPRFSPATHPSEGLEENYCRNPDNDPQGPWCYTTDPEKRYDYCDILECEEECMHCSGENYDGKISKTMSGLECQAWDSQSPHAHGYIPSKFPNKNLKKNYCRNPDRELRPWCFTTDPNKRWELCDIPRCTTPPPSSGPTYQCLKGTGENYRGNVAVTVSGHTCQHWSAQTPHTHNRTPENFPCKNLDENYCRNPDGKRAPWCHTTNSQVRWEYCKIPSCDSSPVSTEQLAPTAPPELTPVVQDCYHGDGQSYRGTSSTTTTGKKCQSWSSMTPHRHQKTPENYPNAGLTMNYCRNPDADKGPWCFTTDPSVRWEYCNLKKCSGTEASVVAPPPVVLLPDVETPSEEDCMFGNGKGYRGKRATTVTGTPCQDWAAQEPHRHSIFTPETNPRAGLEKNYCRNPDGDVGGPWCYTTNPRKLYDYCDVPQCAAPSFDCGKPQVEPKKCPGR
Procedure: as §3, §4, §5
(§7) Human plasmin is purchased from Boehringer Mannheim, Indianapolis, Ind.; nt-PA is purchased as single chain activity reference from American Diagnostica, Greenwich, Conn.; modified-t-PA6 (mt-PA6) is prepared at Eli Lilly and Company by procedure known in the art (See, Burck, et al., J. Biol. Chem., 265, […] (1990). Plasmin chromogenic substrate H-D-Val-Leu-Lys-p-nitroanilide and tissue plasminogen activator (t-PA) substrate H-D-Ile-Pro-Arg-p-nitroanilide are purchased from Kabi Vitrum, Stockholm, Sweden.

[6] = system: Human plasma; test: Human plasma anticoagulation, activated partial thromboplastin time (APTT); format: biochemical; conditions: concentration required to double the APTT, linear extrapolation
Procedure: as §1, §2

[7] = target: T3, factor Xa (Homo sapiens, UniProt P00742); test: Serine protease selectivity, chromogenic substrate (Kass), factor Xa; format: biochemical; conditions: substrate N-Benzoyl-Ile-Glu-Gly-Arg-p-nitroanilide
T3 construct: Human factors X, Xa, IXa, XIa, and XIIa are purchased; purchased Enzyme Research Laboratories, South Bend, Ind
T3 sequence (P00742 235-488 limits assumed): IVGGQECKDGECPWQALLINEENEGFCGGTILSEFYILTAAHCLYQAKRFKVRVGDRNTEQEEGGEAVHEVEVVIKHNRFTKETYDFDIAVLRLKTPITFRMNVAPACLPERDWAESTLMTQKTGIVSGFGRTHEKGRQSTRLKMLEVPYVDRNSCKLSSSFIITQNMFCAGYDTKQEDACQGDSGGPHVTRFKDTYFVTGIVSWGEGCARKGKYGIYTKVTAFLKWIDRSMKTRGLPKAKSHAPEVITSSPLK
T3 sequence (P00742 41-179 partner limits assumed): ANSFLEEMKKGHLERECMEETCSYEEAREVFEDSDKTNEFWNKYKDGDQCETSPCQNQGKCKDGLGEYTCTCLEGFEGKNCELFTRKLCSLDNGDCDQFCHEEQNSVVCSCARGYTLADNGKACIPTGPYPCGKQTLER
Procedure: as §3, §4, §5, §6

[8] = target: T4, t-PA (Homo sapiens, UniProt P00750); test: Serine protease selectivity, chromogenic substrate (Kass), t-PA; format: biochemical; conditions: substrate H-D-Ile-Pro-Arg-p-nitroanilide
T4 construct: purchased American Diagnostica, Greenwich, Conn
T4 sequence (P00750 36-562): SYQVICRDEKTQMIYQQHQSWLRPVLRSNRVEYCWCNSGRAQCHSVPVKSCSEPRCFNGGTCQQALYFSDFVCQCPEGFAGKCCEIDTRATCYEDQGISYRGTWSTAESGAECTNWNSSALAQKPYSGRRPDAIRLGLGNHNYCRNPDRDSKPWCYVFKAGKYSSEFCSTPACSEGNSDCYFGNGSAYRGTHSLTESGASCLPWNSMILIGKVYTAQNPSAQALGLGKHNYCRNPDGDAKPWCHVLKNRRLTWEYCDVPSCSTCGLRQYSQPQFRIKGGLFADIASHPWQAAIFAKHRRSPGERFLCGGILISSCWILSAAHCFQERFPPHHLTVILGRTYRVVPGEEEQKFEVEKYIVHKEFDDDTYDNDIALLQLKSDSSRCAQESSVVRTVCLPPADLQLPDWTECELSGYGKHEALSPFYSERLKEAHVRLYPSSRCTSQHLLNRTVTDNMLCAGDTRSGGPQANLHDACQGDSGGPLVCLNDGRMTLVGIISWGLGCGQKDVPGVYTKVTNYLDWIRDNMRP
Procedure: as §3, §4, §5, §7

Row | Structure (SMILES) | 2x Clotting time, TT [1] [ng/mL] | 2x Clotting time, PT [2] | Enzyme Kass, Trypsin [3] [L/mol × 10^6] | Enzyme Kass, Human Thrombin [4] | Enzyme Kass, Plasmin [5] [L/mol × 10^6] | 2x Clotting time, APTT [6] | Enzyme Kass, Xa [7] | Enzyme Kass, t-PA [8] [L/mol × 10^6]
1 | Cl.Cl.NC(N)=NCCCC(C=O)NC(=O)C1CC(Oc2ccccc2)CN1C(=O)C1NCCC2CCCCC21 [Example 14, L-1-Piq-Pro(4-cis-phenoxy)-ArgH.2 HCl] | 460 | 18,000 ng/mL | 6.2 | 8.7 L/mol × 10^6 | 0.34 | 9,000 ng/mL | 0.48 L/mol × 10^6 | 0.002
2 | CC(=O)Nc1cccc(O[C@H]2C[C@@H](C(=O)N[C@H](C=O)CCCNC(=N)N)N(C(=O)[C@H]3CCCCN3)C2)c1.Cl.Cl (relative stereo) [Example 12, D-hPro-Pro(4-cis-(3-AcNH-phenoxy))-ArgH.2 HCl] | 210 | 4,100 ng/mL | 56 | 6.1 L/mol × 10^6 | 1.1 | 1,300 ng/mL | 1.2 L/mol × 10^6 | 0.015
3 | CC(C)CC[C@H]1C[C@@H](C(=O)N[C@H](C=O)CCCNC(=N)N)N(C(=O)[C@H]2CCCCN2)C1.Cl.Cl (relative stereo) [Example 4, D-homoprolyl-L-cis-4-isoamyl-prolyl-L-argininal dihydrochloride] | 130 | 3,100 ng/mL | 77 | 8.2 L/mol × 10^6 | 2.0 | 630 ng/mL | 7.9 L/mol × 10^6 | 0.19
4 | Cl.Cl.N=C(N)NCCC[C@@H](C=O)NC(=O)[C@@H]1C[C@H](Oc2cccc(N)c2)CN1C(=O)[C@H]1CCCCN1 (relative stereo) [Example 13, D-hPro-Pro(4-cis-(3-NH2-phenoxy))-ArgH.2 HCl] | 490 | 9,100 ng/mL | 22 | 2.1 L/mol × 10^6 | 0.65 | 2,900 ng/mL | 0.58 L/mol × 10^6 | 0.033
5 | Cl.N=C(N)NCCC[C@@H](C=O)NC(=O)[C@@H]1C[C@@H]2CCCC[C@@H]2N1C(=O)[C@@H](Cc1ccccc1)NCC(=O)O (relative stereo) [Example 24, HOOCCH2 -D-Phe-cis-Ohi-ArgH.HCl] | 11 | 727 ng/mL | 424 | 1,160 L/mol × 10^6 | 16.3 | 490 ng/mL | 1.70 L/mol × 10^6 | 0.075
6 | CCS(=O)(=O)N[C@@H](C(=O)N1C[C@@H](Oc2ccccc2)C[C@H]1C(=O)N[C@H](C=O)CCCNC(=N)N)c1ccccc1.Cl (relative stereo) [Example 17, EtSO2 -D-Phg-Pro(4-cis-phenoxy)-ArgH.HCl] | 16 | 1,200 ng/mL | 910 | 2,200 L/mol × 10^6 | 26 | 380 ng/mL | 32 L/mol × 10^6 | 1.5
7 | CCS(=O)(=O)N[C@H](Cc1ccccc1)C(=O)N1[C@H](C(=O)N[C@H](C=O)CCCNC(=N)N)C[C@@H]2CCCC[C@@H]21.Cl (relative stereo) [Example 23, EtSO2 -D-Phe-cis-Ohi-ArgH.HCl] | 19 | 746 ng/mL | 312 | 957 L/mol × 10^6 | 28.2 | 312 ng/mL | 4,37 L/mol × 10^6 | 2.07
